From PMC6137088, “The Role of Outer Membrane Proteins and Lipopolysaccharides for the Sensitivity of Escherichia coli to Antimicrobial Peptides” (Frontiers in Microbiology, 2018)
Structures can show the parent of a compound that is named as a salt. Where a SMILES comes first, the peptide text is derived from it. Bridges are numbered along the chain shown (N, C = ends). Where no end group is shown, it is not given here. [ ]: non-standard residue; d: D form. The star is where a group is joined. X1 = CC[C@H](C)CCCCC(=O)*; Dab = NCC[C@H](N)C(=O)O

Columns and labels:
[1] = system: E. coli BW25113 gmhA::kan; assay type: cell-based, Escherichia coli; conditions: for MIC: Table 3, BW25113 gmhA::kan, Mueller-Hinton-II, 16–20 h, duplicates (*) or triplicates
Excerpt: (§1) The E. coli strains 470, F632, F653 and F2513 were kindly provided by Prof. H. Brade and Prof. S. Muller-Loennies, Research Center Borstel, Leipniz-Center for Medicine and Biosciences, Germany. E. coli BW25113 (CGSC#:7636), a derivative of F^−, λ^− E. coli K12 strain BD792 is the wild-type strain which was used in the generation of the KEIO collection and ordered from the Coli Genetic Stock Centre (CGSC, Yale University). E. coli JW3596, E. coli JW3024, E. coli JW3595, E. coli JW3606, E. coli JW0212, E. coli JW1667, E. coli JW0554, E. coli JW3605 and E. coli JW3600 are isogenic mutants of waaC, waaE, waaF, waaG, gmhA (lpcA), lpp, ompT, waaP, or waaY derived from the parental strain E. coli BW25113 and were ordered from the KEIO collection (Baba et al., [2006]). E. coli ATCC25922 is a clinical isolate, serotype O6, often used as control strain in antimicrobial susceptibility testing was ordered from the ATCC strain collection. All strains were grown in Mueller-Hinton-II medium and incubation took place aerobically at 37°C for 18–20 h.
(§2) The minimum inhibitory concentrations (MICs) of the AMPs were measured in 96-well microtiter plates according the Clinical and Laboratory Standards Institute [CLSI, formerly National Committee for Clinical Laboratory Standards (NCCLS)] (Wikler et al., [2009]). Liquid Mueller-Hinton-II medium containing increasing concentrations of AMPs is inoculated with a defined number of cells (~10^5 CFUs/ml) in 96-well microtiter plates (polypropylene). Each microtiter plate includes a positive growth control and a negative control (sterile control). After incubation, the minimal inhibitory concentration (MIC) is determined by the lowest concentration showing no visible growth. All plates were incubated for 16–20 h.

E. coli BW25113 lpp::kan = assay type: cell-based, Escherichia coli
Excerpt: as §1, §2

[2] = system: E. coli BW25113 ompT::kan; assay type: cell-based, Escherichia coli; conditions: for MIC: Table 3, BW25113 ompT::kan, Mueller-Hinton-II, 16–20 h, duplicates (*) or triplicates
Excerpt: as §1, §2

[3] = system: E. coli BW25113 waaC::kan; assay type: cell-based, Escherichia coli; conditions: for MIC: Table 3, BW25113 waaC::kan, Mueller-Hinton-II, 16–20 h, duplicates (*) or triplicates
Excerpt: as §1, §2

[4] = system: E. coli BW25113 waaE::kan; assay type: cell-based, Escherichia coli; conditions: for MIC: Table 3, BW25113 waaE::kan, Mueller-Hinton-II, 16–20 h, duplicates (*) or triplicates
Excerpt: as §1, §2

[5] = system: E. coli BW25113 waaF::kan; assay type: cell-based, Escherichia coli; conditions: for MIC: Table 3, BW25113 waaF::kan, Mueller-Hinton-II, 16–20 h, duplicates (*) or triplicates
Excerpt: as §1, §2

[6] = system: E. coli BW25113 waaG::kan; assay type: cell-based, Escherichia coli; conditions: for MIC: Table 3, BW25113 waaG::kan, Mueller-Hinton-II, 16–20 h, duplicates (*) or triplicates
Excerpt: as §1, §2

[7] = system: E. coli BW25113 waaP::kan; assay type: cell-based, Escherichia coli; conditions: for MIC: Table 3, BW25113 waaP::kan, Mueller-Hinton-II, 16–20 h, duplicates (*) or triplicates
Excerpt: as §1, §2

[8] = system: E. coli BW25113 waaY::kan; assay type: cell-based, Escherichia coli; conditions: Table 3, Mueller-Hinton-II, 16–20 h, duplicates (*) or triplicates
Excerpt: as §1, §2

E. coli BW25113 = assay type: cell-based, Escherichia coli; conditions: Table 3; E. coli BW25113 wild type; Mueller-Hinton-II, ~10^5 CFUs/ml, 16–20 h; duplicates (*) or triplicates
Excerpt: as §1, §2

E. coli ATCC25922 ΔwaaC = assay type: cell-based, Escherichia coli; conditions: Table 6, triplicates
Excerpt: as §1, §2

E. coli ATCC25922 ΔwaaE = assay type: cell-based, Escherichia coli; conditions: Table 6, triplicates
Excerpt: as §1, §2

E. coli ATCC25922 ΔwaaF = assay type: cell-based, Escherichia coli; conditions: Table 6, triplicates
Excerpt: as §1, §2

E. coli ATCC25922 ΔwaaG = assay type: cell-based, Escherichia coli; conditions: Table 6, triplicates
Excerpt: as §1, §2

E. coli ATCC25922 = assay type: cell-based, Escherichia coli; conditions: triplicates; for Antimicrobial activity: MIC: Table 6, E. coli ATCC25922 wild-type
Excerpt: as §1, §2

S. typhimurium LT2 = assay: MIC testing (CLSI broth microdilution); assay type: cell-based; conditions: Table 6, triplicates
Description: as §2

Y. ruckeri 392/2003 = assay: MIC testing (CLSI broth microdilution); assay type: cell-based; conditions: Table 6, triplicates
Description: as §2

[9] = system: E. coli ATCC25922 LPS mutants (ΔwaaC, ΔwaaE, ΔwaaF, ΔwaaG); assay type: cell-based, Escherichia coli; conditions: E. coli ATCC25922 background (text prints ATCC29522); summary of Table 6
Excerpt: as §1, with “[…],” for “E. coli JW3605 and E. coli JW3600 are isogenic mutants of waaC, waaE, waaF, waaG,”, “or waaY derived from the parental strain E. coli BW25113 and were ordered from the” left out
as §2

E. coli F2513 (R4) = assay type: cell-based, Escherichia coli; conditions: Table 4; E. coli F2513 (R4 prototype, rough LPS); triplicates
Excerpt: as §1, §2

E. coli F470 (R1) = assay type: cell-based, Escherichia coli; conditions: Table 4; E. coli F470 (R1 prototype, rough LPS); triplicates
Excerpt: as §1, §2

E. coli F632 (R2) = assay type: cell-based, Escherichia coli; conditions: Table 4; E. coli F632 (R2 prototype, rough LPS); triplicates
Excerpt: as §1, §2

E. coli F653 (R3) = assay type: cell-based, Escherichia coli; conditions: Table 4; E. coli F653 (R3 prototype, rough LPS); triplicates
Excerpt: as §1, §2

Compound | MIC [2] | MIC [3] [µg/mL] | MIC [4] [µg/mL] | MIC [5] [µg/mL] | MIC [6] [µg/mL] | MIC (E. coli BW25113) [µg/mL] | Antimicrobial activity: MIC (E. coli ATCC25922 ΔwaaC) [µg/mL] | Antimicrobial activity: MIC (E. coli ATCC25922 ΔwaaE) [µg/mL] | Antimicrobial activity: MIC (E. coli ATCC25922 ΔwaaF) [µg/mL] | Antimicrobial activity: MIC (E. coli ATCC25922 ΔwaaG) [µg/mL] | Antimicrobial activity: MIC (E. coli ATCC25922) [µg/mL] | Antimicrobial activity: MIC (S. typhimurium LT2) [µg/mL] | Antimicrobial activity: MIC (Y. ruckeri 392/2003) [µg/mL] | MIC / antimicrobial activity in LPS mutants harboring a deletion in waaC, waaE, waaF, or waaG [9] [µg/mL] | also measured
CC[C@H](C)CCCCC(=O)N[C@@H](CCN)C(=O)N[C@H](C(=O)N[C@@H](CCN)C(=O)N[C@H]1CCNC(=O)[C@H]([C@@H](C)O)NC(=O)[C@H](CCN)NC(=O)[C@H](CCN)NC(=O)[C@H](CC(C)C)NC(=O)[C@@H](CC(C)C)NC(=O)[C@H](CCN)NC1=O)[C@@H](C)O [Colistin, colistin sulfate] (X1-[Dab]T[Dab][Dab][Dab][dL]L[Dab][Dab]T; lactam 4-C (inferred); N-terminus assumed) | 0.125 to 0.25 µg/mL | 0.063 to 0.125 | 0.063 to 0.125 | 0.063 | 0.063 to 0.125 | 0.125 to 0.25 |  |  |  |  |  |  |  |  | MIC [1]: 0.063 µg/mL; increase in antimicrobial activity against BW25113 gmhA::kan compared to parental BW25113 ([1]; from MIC values of Table 3): up to 2 fold; MIC (E. coli BW25113 lpp::kan; Table 3, BW25113 lpp::kan, Mueller-Hinton-II, 16–20 h, duplicates (*) or triplicates): 0.063 to 0.125 µg/mL; increase in antimicrobial susceptibility of the lpp mutant compared to the wild-type (factor) (E. coli BW25113 lpp::kan; from MIC values of Table 3): 2; increase of antimicrobial activity in the ompT mutant compared to the parental strain BW25113 (factor) ([2]; from MIC values of Table 3): unchanged; increase in antimicrobial activity against BW25113 waaC::kan compared to parental BW25113 ([3]; from MIC values of Table 3): up to 2 fold; increase in antimicrobial activity against BW25113 waaE::kan compared to parental BW25113 ([4]; from MIC values of Table 3): up to 2 fold; increase in antimicrobial activity against BW25113 waaF::kan compared to parental BW25113 ([5]; from MIC values of Table 3): up to 2 fold; increase in antimicrobial activity against BW25113 waaG::kan compared to parental BW25113 ([6]; from MIC values of Table 3): up to 2 fold; MIC [7]: 0.125 to 0.25 µg/mL; increase in antimicrobial activity in a waaP mutant background compared to the wild-type strain (times) ([7]; from MIC values of Table 3): not changed; MIC [8]: 0.125 to 0.25 µg/mL
GLRKRLRKFRNKIKEKKKKIGQKIQGLLPKLAPRTDY [L17K] |  |  |  |  |  |  | 8 | 8 | 8 | 8 | ≥64 | 16 | ≥64 | 4 to 8 | 
GLRKRLRKFRNKIKEKLKKEGQKIQGLLPKLAPRTDY [I20E] |  |  |  |  |  |  | 4 | 4 | 4 | 8 | ≥64 | 8 | 32 | 4 to 8 | 
GLRKRLRKFRNKIKEKLKKIGQKGQGLLPKLAPRTDY [I24G] |  |  |  |  |  |  | 8 | 8 | 8 | 8 | ≥64 | 8 to 16 | 32 | 4 to 8 | 
GLRKRLRKFRNKIKEKLKKIGQKIQGPLPKLAPRTDY [L27P] |  |  |  |  |  |  | 8 | 4 | 4 | 4 | ≥64 | 8 | 32 | 4 to 8 | 
KLRKLFRKLLKLIRKLLR [Cap11-1-18 m^2] | 8 ^* μg/ml | 8 | 8 | 8 | 8 | 8 to 16 |  |  |  |  |  |  |  |  | MIC [1]: 8 ^* μg/ml; Antimicrobial activity (MIC) (E. coli F2513 (R4)): 8 to 16 µg/mL; Antimicrobial activity (MIC) (E. coli F470 (R1)): 32 µg/mL; Antimicrobial activity (MIC) (E. coli F632 (R2)): 16 to 32 µg/mL; Antimicrobial activity (MIC) (E. coli F653 (R3)): ≥32 µg/mL
SWLSKTAKKLENSAKKRISEGIAIAIQGGPR [Cecropin P1] | 16 ^* μg/ml | 8 | 8 | 4 | 16 | 16 to 32 |  |  |  |  |  |  |  |  | Antimicrobial activity (MIC) (E. coli ATCC25922; Table 4, E. coli ATCC25922 (smooth LPS)): 32 µg/mL; MIC [7]: 16 to 32 µg/mL; MIC [8]: 32 µg/mL; Antimicrobial activity (MIC) (E. coli F2513 (R4)): 16 to 32 µg/mL; Antimicrobial activity (MIC) (E. coli F470 (R1)): 32 µg/mL; Antimicrobial activity (MIC) (E. coli F632 (R2)): 32 µg/mL; Antimicrobial activity (MIC) (E. coli F653 (R3)): 32 µg/mL
